In patent US20260092054A1, “FUSED RING COMPOUND AND PHARMACEUTICAL CONTAINING SAME” (KAKEN PHARMACEUTICAL CO., LTD., priority 2022, published 2026):

What was measured:
human STAT6/pIL-4Rα = biological target: T1, human STAT6/pIL-4Rα (Homo sapiens, UniProt P42226); assay: Binding inhibitory activity between human STAT6/pIL-4Rα by fluorescence polarization method; conditions: rhSTAT6 (123-658) / FAM-pIL-4Rα peptide
T1 construct: histidine tag
T1 sequence (P42226 123-658): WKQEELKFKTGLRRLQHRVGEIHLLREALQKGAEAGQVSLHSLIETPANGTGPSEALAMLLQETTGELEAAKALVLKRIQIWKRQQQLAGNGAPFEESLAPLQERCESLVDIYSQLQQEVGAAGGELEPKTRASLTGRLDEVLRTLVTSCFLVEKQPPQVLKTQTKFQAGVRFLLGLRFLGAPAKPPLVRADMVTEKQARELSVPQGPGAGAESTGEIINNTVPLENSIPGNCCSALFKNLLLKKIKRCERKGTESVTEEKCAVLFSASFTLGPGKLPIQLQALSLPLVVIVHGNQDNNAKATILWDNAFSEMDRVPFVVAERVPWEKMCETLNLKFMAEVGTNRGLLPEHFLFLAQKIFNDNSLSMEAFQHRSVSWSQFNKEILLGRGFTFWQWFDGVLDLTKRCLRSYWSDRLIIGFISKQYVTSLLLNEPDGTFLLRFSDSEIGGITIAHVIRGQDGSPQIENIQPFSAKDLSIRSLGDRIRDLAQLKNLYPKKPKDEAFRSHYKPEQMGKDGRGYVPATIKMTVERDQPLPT
Protocol: Test Example 1: Measurement of Binding Inhibitory Activity Between Human STAT6/pIL-p 4Rα by Fluorescence Polarization Method
1) Construction of Histidine Tag-Fused Recombinant Human STAT6 (123 to 658 Region)
A histidine tag-fused recombinant human STAT6 (hereinafter referred to as rhSTAT6) expression vector [plasmid DNA in which a nucleic acid sequence containing human STAT6 (123-658 region) was inserted into a pET28a(+) vector (Novagen)] was inserted into E. coli, and the cells were cultured overnight under culturing conditions at 17° C. with IPTG treatment. After disrupting E. coli with a high-pressure homogenizer (EmulsiFlex-C3, manufactured by AVESTIN, Inc.), affinity purification using Ni-NTA agarose (manufactured by Qiagen), cation exchange chromatography using HiTrap® CM-FF (manufactured by GE healthcare), and gel filtration chromatography using Superdex® 200 10/300GL (manufactured by GE healthcare) were performed to obtain rhSTAT6.
2) Measurement of Binding Inhibitory Activity Between Human STAT6/pIL-4Rα by Fluorescence Polarization Method
A DMSO solution of the example compound was diluted with an assay buffer [for example, a buffer containing 50 mmol/L NaCl, 10 mmol/L HEPES (pH 7.0), 1 mmol/L DTT, 1 mmol/L EDTA, and 0.01 vol % NP-40, and the like] to prepare a compound-added solution. The DMSO concentration in the compound addition solution was adjusted to 1 or 2 vol %. 10 μL of the compound addition solution and an assay buffer containing 1 or 2 vol % DMSO were added to each well of a 384-well plate. 5 μL of an assay buffer solution containing rhSTAT6 (rhSTAT6 concentration: for example, 1 μmol/L) or an assay buffer was added to each well of a 384-well plate. After leaving the plate at room temperature for 30 minutes in the dark, 5 μL of an assay buffer solution (FAM-pIL-4Rp concentration: for example, 80 nmol/L) containing FAM-labeled phosphorylated IL-4Rα peptide (sequence: FAM-Ala-pTyr-Lys-Pro-Phe-Gln-Asp-Leu-IIe-NH2) (hereinafter, FAM-pIL-4Rp) or an assay buffer containing 2 vol % DMSO was added to each well of the 384-well plate. The mixture was left to stand at room temperature for 30 minutes in the dark, and then centrifuged (200 g, 1 minute, room temperature). Fluorescence polarization values were measured using Infinite (registered trademark) F500 (manufactured by Tecan Japan Co., Ltd.) (Excitation: 485 nm, Emission: 535 nm). The inhibition rate of each Example compound was calculated according to the following formula using the fluorescence polarization value (A) when rhSTAT6 and FAM-pIL-4Rp were added without adding the Example compound, the fluorescence polarization value (B) when FAM-pIL-4Rp was added without adding the Example compound and rhSTAT6, and the fluorescence polarization value (C) when each Example compound, rhSTAT6, and FAM-pIL-4Rp were added.
In the evaluation of each example compound, the 50% inhibitory concentration (IC50) of each example compound was calculated from a linear function equation of a straight line connecting two points sandwiching 50%.

human STAT6 = assay: Human STAT6 dependent reporter activity (IL-4 stimulated STAT6 reporter assay using STAT6-HEK293 cells); type: cell-based; conditions: Homo sapiens, IL-4 stimulation, luciferase activity, read-out: Inhibition rate (%); for inhibition at 0.1 µM: compound 0.1 μmol/L; for inhibition at 1 µM: compound 1 μmol/L
Protocol: Test Example 2: Measurement of Human STAT6 Dependent Reporter Activity
1) Construction of Human STAT6-HEK293 Cells
HEK 293 cells maintenance cultured by [Penicillin-Streptomycin (Thermo Fisher Scientific) and FBS, 1 vol % and 10 vol % respectively added to DMEM high glucose (Thermo Fisher Scientific)](manufactured by ATCC) were collected, and suspended in 10 mL of 0.5% BSA/PBS. 1×10^6 cells were collected, the supernatant was removed by centrifuging, and the cells were suspended in 100 μL of Nucleofector solution V (manufactured by Lonza K.K.). 2 μg of STAT6 vector [plasmid DNAs incorporating human STAT6 sequences in pcDNA3.1 (Invitrogen)] was added, and the STAT6 vector was introduced into the HEK293 cells using the program Q-001 initially registered in the Nucleofector®2b. A cell line (STAT6-HEK293 cells) consistently expressing STAT6 was acquired by selecting resistant cells in a medium containing Geneticin® (manufactured by Thermo Fisher Scientific). 2) STAT6 reporter assay using STAT6-HEK293 cells 3×10^6 STAT6-HEK293 cells maintained in assay medium [culture medium supplemented with 1 vol % Geneticin®] were harvested and seeded in a 10 cm dish. 3 μg of a STAT6 reporter vector [plasmid in which a sequence containing a STAT6 binding sequence and a C/EBP binding sequence in tandem was incorporated into pGL4.27 (manufactured by Promega Corporation)] and 9 μL of FuGENE® HD transfection reagent (manufactured by Promega Corporation) were added to 500 μL of Opti-MEM® (manufactured by Thermo Fisher Scientific) to prepare transfection solutions. The transfection solution was vortexed and left to stand for about 5 minutes, then added dropwise to the STAT6-HEK293 cells, which were then cultured overnight in a C02 incubator to produce STAT6 reporter cells.
The prepared STAT6 reporter cells were seeded on B&W isoplate-96 TC (PerkinElmer Japan Co., Ltd.) (3×10^4 cells/50 μL/well) and cultured overnight in a C02 incubator (37° C., 5% C02). 50 μL of assay medium was added to each well instead of the STAT6 reporter cells. The compound addition solution was prepared by diluting the DMSO solution of the example compound 250-fold using the assay medium. 20 μL of compound addition solution or 0.4 vol % DMSO-containing assay medium was added to the plate, and the plate was then cultured in a CO2 incubator for 1 hour. 10 μL of 80 ng/mL human IL-4 solution (Peprotech) or assay medium was added to each well, and the cells were cultured in a CO2 incubator for 6 hours.
STAT6 reporter activity was measured using the Bright-Glo® Luciferase Assay System (Promega). 100 μL of Bright-Glo® reagent was added to each well, and luciferase activity was measured using Infinite® F500. The inhibition rate of each Example compound was calculated by the following formula using the luciferase activity value (G) when no Example compound was added and stimulation with IL-4 was performed, the luciferase activity value (H) when no Example compound was added and stimulation with IL-4 was not performed, and the luciferase activity value (I) when each Example compound was treated and stimulation with IL-4 was performed.
Note that the viable cell rate under each condition was 70% or more, and it was determined that the luciferase activity inhibitory activity of each example compound was appropriately evaluated.

Structure (SMILES) | IC50 (human STAT6/pIL-4Rα) [nM] | inhibition at 0.1 µM (human STAT6) [%] | inhibition at 1 µM (human STAT6) [%]
Cc1nn(C)c(=O)n1-c1ccc(-c2cc3cccc(C(=O)Nc4ccc(F)c(C(N)=O)c4)c3n2CC2CC2)cc1 [Ex. 34] | 610 | 39 | 96
COCCn1c(-c2ccc(N3C(=O)C(C)CC3C)cc2)cc2cc(C(F)(F)F)nc(C(=O)Nc3ccc(F)c(C(N)=O)c3)c21 (stereo not shown) [Ex. 133] | 230 | 80 | –
CCn1c(-c2ccc(N3C(=O)C(C)CC3C)cc2)cc2cccc(C(=O)Nc3ccc(F)c(C(N)=O)c3)c21 (stereo not shown) [Ex. 158] | 730 | 44 | 96
COCCn1c(-c2ccc(-n3c(C)nn(C)c3=O)cc2)cc2cc(C(F)(F)F)cc(C(=O)Nc3cccc(C(=O)Nc4cc(C#N)n(C)n4)c3)c21 [Ex. 179] | 320 | 93 | –
COCCn1c(-c2ccc(-n3c(C)nn(C)c3=O)cc2)cc2cc(C(F)(F)F)cc(C(=O)Nc3ccc(C)nc3)c21 [Ex. 73] | 370 | 72 | 100
Cc1nn(C)c(=O)n1-c1ccc(-c2cc3ccnc(C(=O)Nc4cccc(C(N)=O)c4F)c3n2CC2CCC2)cc1 [Ex. 122] | 690 | 23 | 89
COCCn1c(-c2ccc(-n3c(C)nn(C)c3=O)cc2)cc2ccnc(C(=O)Nc3cccc(C(N)=O)c3F)c21 [Ex. 26] | 390 | 63 | 98
CCn1c(-c2ccc(-n3c(C)nn(C)c3=O)cc2)cc2ccnc(C(=O)Nc3cccc(C(N)=O)c3F)c21 [Ex. 22] | 320 | 89 | 99
CCn1c(-c2ccc(N3C(=O)C(C)CC3C)cc2)nc2cc(C(F)(F)F)cc(C(=O)Nc3cccc(C(N)=O)c3)c21 (racemic) [Ex. 11] | 440 | 43 | 92
COCCn1c(-c2ccc(-n3c(C)nn(C)c3=O)cc2)cc2cc(C(F)(F)F)cc(C(=O)Nc3cccc(C(=O)Nc4ccn(C5CC5)n4)c3)c21 [Ex. 178] | 280 | 100 | –
COCCn1c(-c2ccc(-n3c(C)nn(C)c3=O)cc2)cc2cc(C(F)(F)F)cc(C(=O)Nc3ccnn3C)c21 [Ex. 80] | 400 | 4 | 61
CCn1c(-c2ccc(-n3ncn(C)c3=O)cc2)cc2cc(C(F)(F)F)cc(C(=O)Nc3cccc(C(N)=O)c3)c21 [Ex. 48] | 340 | 84 | 100
CCn1c(-c2ccc3c(c2)CCN3C(C)=O)nc2cc(C(F)(F)F)cc(C(=O)Nc3cccc(C(N)=O)c3F)c21 [Ex. 2] | 490 | 14 | 72
CCn1c(-c2ccc(-n3c(C)nn(C)c3=O)cc2)cc2cc(C(F)(F)F)nc(C(=O)Nc3cccc(C(N)=O)c3F)c21 [Ex. 83] | 370 | 68 | 98
COCCn1c(-c2ccc(-n3c(C)nn(C)c3=O)cc2)cc2cc(C(F)(F)F)cc(C(=O)Nc3ccnnc3)c21 [Ex. 88] | 420 | 9 | 76
CCn1c(-c2ccc(-n3c(C)nn(C)c3=O)cc2)cc2ccnc(C(=O)Nc3ccc(F)c(C(=O)Nc4cc[nH]n4)c3)c21 [Ex. 185] | 470 | 34 | 96
CCn1c(-c2ccc(-n3cnn(C)c3=O)cc2)cc2ccnc(C(=O)Nc3cccc(C(N)=O)c3F)c21 [Ex. 99] | 380 | 51 | 95
CCn1c(-c2ccc(-n3c(C)nn(C)c3=O)cc2)cc2ccnc(C(=O)Nc3cccc(C(=O)Nc4cccn(C)c4=O)c3)c21 [Ex. 169] | 400 | 81 | 99
CCn1c(-c2ccc(N3C(=O)C(C)CC3C)nc2)cc2cc(C(F)(F)F)cc(C(=O)Nc3ccc(F)c(C(N)=O)c3)c21 (stereo not shown) [Ex. 157] | 310 | 62 | –
CCn1c(-c2ccc(-n3c(C)nn(C)c3=O)cc2)cc2ccnc(C(=O)Nc3ccc(F)c(C(=O)Nc4cncn(C)c4=O)c3)c21 [Ex. 192] | 340 | 71 | –
CCn1c(-c2ccc(-n3c(C)nn(C)c3=O)cc2)cc2cccc(C(=O)Nc3ccc(F)c(C(N)=O)c3)c21 [Ex. 17] | 350 | 81 | 99
Cc1nn(C)c(=O)n1-c1ccc(-c2cc3cc(C(F)(F)F)cc(C(=O)Nc4cccc(C(N)=O)c4F)c3n2CC2(C#N)CC2)cc1 [Ex. 125] | 260 | 52 | 99
Cc1nn(C)c(=O)n1-c1ccc(-c2cc3ccnc(C(=O)Nc4ccc(F)c(C(N)=O)c4)c3n2CCOCC(F)(F)F)cc1 [Ex. 114] | 330 | 57 | 97
